Data reported in the OligoGym collection.
These antisense oligonucleotides have a phosphorothioate backbone; sugars and methylation of C are not fully specified.

Columns and labels:
Conditions in all cases: ASO
SMAD7 = target: SMAD7
PTPN11 = target: PTPN11
MAP3K1 = target: MAP3K1
RHOB = target: RHOB
Note: test concentration or dose not given here.

Sequence	remaining target (mRNA or protein) (fraction of control) (SMAD7)	remaining target (mRNA or protein) (fraction of control) (MAP3K1)	further results
AAAACAGAACACAAACGA	≥ 1	–	–
AAAACCTGATGTCACCAG	≥ 1	–	–
AAACCATCTCCGCGATGTCA	–	–	remaining target (mRNA or protein) (fraction of control) (PTPN11): 0.41
AAAGAATCAAACCGTTCTCC	–	–	remaining target (mRNA or protein) (fraction of control) (PTPN11): 0.58
AAAGTCATTCACCGTGTTTT	–	–	remaining target (mRNA or protein) (fraction of control) (PTPN11): 0.54
AACCTTTGTAGTTAGAAA	0.94	–	–
AAGAATATCAATCACAATGA	–	–	remaining target (mRNA or protein) (fraction of control) (PTPN11): ≥ 1
AATCCTTTTCCAGTTTTCTC	–	0.87	–
AATTGGTTCTGGTTCGGC	≥ 1	–	–
ACACACAGGATGGGAGCA	≥ 1	–	–
ACACCAGTGATATTTGGGTG	–	–	remaining target (mRNA or protein) (fraction of control) (PTPN11): ≥ 1
ACATAAACTTTCTTGCGTCT	–	–	remaining target (mRNA or protein) (fraction of control) (PTPN11): 0.88
ACATACTTAGGTAAGGGTTC	–	0.56	–
ACCATTCTTGCAGAACTCAA	–	0.55	–
ACCTTGTGTACCAACAGC	≥ 1	–	–
ACTCACACACACTCCTGA	0.79	–	–
AGAAGTTGGGAATCTGAA	≥ 1	–	–
AGCACCGAGTGCGTGAGC	0.72	–	–
AGCCTCTTGACTTCCGAG	≥ 1	–	–
AGGAGGCGAGGAGAAAAG	≥ 1	–	–
AGGCGGCCGGGCAGCAGG	≥ 1	–	–
AGTAACCATTCTTGCAGAAC	–	≥ 1	–
AGTCTGCAGTTGGTTTGA	≥ 1	–	–
AGTTCGCAGAGTCGGCTA	0.68	–	–
ATCATGATTTGTCAATCACA	–	0.62	–

Sequence	remaining target (mRNA or protein) (fraction of control) (SMAD7)	remaining target (mRNA or protein) (fraction of control) (MAP3K1)	further results
ATTCAGCTAGGTGATAAC	≥ 1	–	–
ATTGGGTACTGTAGTAACCA	–	0.54	–
ATTTCCAATGAGAATGCT	≥ 1	–	–
ATTTCCACCTCATCTGCATA	–	0.44	–
CAAGGCTGGAAACATTAATT	–	0.94	–
CAATCTTGTGTTTATCTT	≥ 1	–	–
CAGAAATGTCCTCTGAACTG	–	0.5	–
CAGTCCGCCCGCTCGCGGCC	–	0.34	–
CAGTTTTGAAAACACATGGG	–	≥ 1	–
CATTCTTGCAGAACTCAAGT	–	0.54	–
CCACCGACTCGGTAAGGTGG	–	0.81	–
CCACTGGCCTCGTTCATAGC	–	0.21	–
CCCACTCCCCGCTGCGTCCG	–	0.06	–
CCCTCCTCCTCGTCCTCG	0.72	–	–
CGAACATGACCTCCGCAC	0.52	–	–
CGACAGCAGCAGCAGCAG	0.82	–	–
CTCCGGCTGCCCCACCCC	0.52	–	–
CTGATCTGCACGGTAAAG	≥ 1	–	–
CTGCCCCTTCTTCCAAAA	0.68	–	–
CTGGTGAAGTGAGTGGAAAC	–	0.76	–
CTGTAGTAACCATTCTTGCA	–	0.4	–
CTGTTCAGTGGCATCATGGC	–	0.49	–
GAATCCCTGAAGTCTATGCT	–	0.52	–
GAGAAAACTTGCGCTGTGTT	–	0.37	–
GAGATCCAGGAGCAGATG	0.78	–	–

Sequence	remaining target (mRNA or protein) (fraction of control) (SMAD7)	remaining target (mRNA or protein) (fraction of control) (MAP3K1)	further results
GATGGTACCTTGGGTTAT	0.94	–	–
GCAACCCTTTGAGAGTTTCT	–	0.32	–
GCACTAGTTTGGGCTTTTGC	–	0.28	–
GCCGATTTTGCTCCGCAC	0.78	–	–
GCCGTCTCGAAGACCTCG	–	–	remaining target (mRNA or protein) (fraction of control) (RHOB): ≥ 1
GCCGTTCTGGGAGCCGTA	–	–	remaining target (mRNA or protein) (fraction of control) (RHOB): ≥ 1
GCTCAGCTCACGCTCTGT	0.62	–	–
GCTCCTCCGCCGCCGCCTGC	–	0.27	–
GCTGTCCGTCGCCCCTTC	0.87	–	–
GGACATCCCCGCTTGCTG	≥ 1	–	–
GGACTTGATGAAGATGGG	≥ 1	–	–
GGCAAAAGCCATTCCCCT	0.72	–	–
GGCAGCCGCGCGCGCGCTGC	–	0.81	–
GGCAGCTGCTGATGAACT	0.86	–	–
GGGATGTTCTCCAGCGAG	–	–	remaining target (mRNA or protein) (fraction of control) (RHOB): 0.67
GGGGTACTGTAGTAACCATT	–	0.55	–
GGTACTGTAGTAACCATTCT	–	0.53	–
GTAGAAGAAATGAAAGAA	≥ 1	–	–
GTAGATATCAATGTGGTTCC	–	0.75	–
GTAGTAACCATTCTTGCAGA	–	0.42	–
GTAGTCGTAGGCTTGGAT	–	–	remaining target (mRNA or protein) (fraction of control) (RHOB): 0.71
GTATGCCACCACGCACCA	≥ 1	–	–
GTCCTTACTGAACACGAT	–	–	remaining target (mRNA or protein) (fraction of control) (RHOB): 0.95
GTCTGCCTTTTGTTTGAACC	–	0.67	–
GTCTTGGCAGAGCACTCG	–	–	remaining target (mRNA or protein) (fraction of control) (RHOB): 0.8

Sequence	remaining target (mRNA or protein) (fraction of control) (SMAD7)	remaining target (mRNA or protein) (fraction of control) (MAP3K1)	further results
GTTCCTGCTTCATGCGGG	–	–	remaining target (mRNA or protein) (fraction of control) (RHOB): 0.73
GTTCTGGGAGCCGTAGCG	–	–	remaining target (mRNA or protein) (fraction of control) (RHOB): 0.64
GTTGATGCAGCCGTTCTG	–	–	remaining target (mRNA or protein) (fraction of control) (RHOB): 0.93
GTTGTCGTTGTAAAGTGTCT	–	0.45	–
GTTGTCTCCCCATCTGCC	≥ 1	–	–
GTTTCCAGATAGTTGTTGGG	–	0.85	–
TAACCATTCTTGCAGAACTC	–	0.59	–
TACTGTAGTAACCATTCTTG	–	0.74	–
TAGTTGATCTGTATAATTGG	–	≥ 1	–
TCAGGCAGCTGGTCCAGCTC	–	0.52	–
TCGGCCACATAGTTCTCG	–	–	remaining target (mRNA or protein) (fraction of control) (RHOB): 0.87
TGCATGAAAAGCAAGCAC	0.91	–	–
TGCCCAGGTACTGCCTCT	0.72	–	–
TGCGGGCCAGCTCTGTGC	–	–	remaining target (mRNA or protein) (fraction of control) (RHOB): 0.69
TGCTTGGATTTCTGCTTC	0.89	–	–
TGGACACAGTAGAGCCTC	≥ 1	–	–
TGTGCGGACATGCTCGTC	–	–	remaining target (mRNA or protein) (fraction of control) (RHOB): ≥ 1
TTACTGAACACGATCAGC	–	–	remaining target (mRNA or protein) (fraction of control) (RHOB): ≥ 1
TTCTTGCAGAACTCAAGTAG	–	≥ 1	–
TTGGGACTGCAAACCTCT	0.91	–	–
TTGTTGAACTAGAAGGTCCT	–	0.57	–
TTGTTGAGCATCCTGTTTCT	–	0.39	–
TTGTTTTCAGGACAGTTTCT	–	0.65	–
TTTTGCATACTGAGCTTAGG	–	0.48	–
